Assay results: the supplement of paper PMC8149375

Columns and labels:
Details in all cases: treatment: drug + dasatinib (fixed dose, not stated); 5 days
[1] = tested on: CAKI-1; assay: AUC of dose-response viability curve, drug + dasatinib, normalised to DMSO (arbitrary (AUC of normalised viability)); higher = less growth inhibition
Experimental: (§1)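 Primary HTS combination arm: 8 RCC cell lines treated with 8 doses (up to 10 uM) of each library drug plus a fixed dose of dasatinib (dose not stated) for 5 days; viability read by CellTiter-Glo and normalised to DMSO. GI50 was fitted with XLfit, AUC is the area under the dose-response curve, and minimum viability is the lowest fraction of DMSO viability across doses.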

[2] = tested on: TK-10; assay: as above
Experimental: as §1

[3] = tested on: UO-31; assay: as above
Experimental: as §1

[4] = tested on: 786-O; assay: as above
Experimental: as §1

[5] = tested on: SN12C; assay: as above
Experimental: as §1

[6] = tested on: 769-P; assay: as above
Experimental: as §1

[7] = tested on: ACHN; assay: as above
Experimental: as §1

[8] = tested on: A498; assay: as above
Experimental: as §1

[9] = tested on: CAKI-1; assay: GI50 of drug in presence of dasatinib; higher = less potent
Experimental: as §1

[10] = tested on: TK-10; assay: as above
Experimental: as §1

[11] = tested on: UO-31; assay: as above
Experimental: as §1

[12] = tested on: 786-O; assay: as above
Experimental: as §1

[13] = tested on: SN12C; assay: as above
Experimental: as §1

[14] = tested on: 769-P; assay: as above
Experimental: as §1

[15] = tested on: ACHN; assay: as above
Experimental: as §1

[16] = tested on: A498; assay: as above
Experimental: as §1

[17] = tested on: CAKI-1; assay: minimum viability across doses, drug + dasatinib, relative to DMSO (fraction); higher = less growth inhibition
Experimental: as §1

[18] = tested on: TK-10; assay: as above
Experimental: as §1

[19] = tested on: UO-31; assay: as above
Experimental: as §1

[20] = tested on: 786-O; assay: as above
Experimental: as §1

[21] = tested on: SN12C; assay: as above
Experimental: as §1

[22] = tested on: 769-P; assay: as above
Experimental: as §1

[23] = tested on: ACHN; assay: as above
Experimental: as §1

[24] = tested on: A498; assay: as above
Experimental: as §1

| SMILES | GI50 of drug [12] [nM] | GI50 of drug [15] [nM] | AUC of dose-response viability curve [1] | AUC of dose-response viability curve [2] | AUC of dose-response viability curve [3] | AUC of dose-response viability curve [4] | AUC of dose-response viability curve [5] | AUC of dose-response viability curve [6] | AUC of dose-response viability curve [7] | AUC of dose-response viability curve [8] | GI50 of drug [9] [nM] | GI50 of drug [10] [nM] | GI50 of drug [11] [nM] | GI50 of drug [13] [nM] | GI50 of drug [14] [nM] | GI50 of drug [16] [nM] | minimum viability across doses [17] | minimum viability across doses [18] | minimum viability across doses [19] | minimum viability across doses [20] | minimum viability across doses [21] | minimum viability across doses [22] | minimum viability across doses [23] | minimum viability across doses [24] |
| --- | --- | --- | --- | --- | --- | --- | --- | --- | --- | --- | --- | --- | --- | --- | --- | --- | --- | --- | --- | --- | --- | --- | --- | --- |
| O=C(Nc1c[nH]nc1-c1nc2cc(CN3CCOCC3)ccc2[nH]1)NC1CC1 [AT9283] + Cc1nc(Nc2ncc(C(=O)Nc3c(C)cccc3Cl)s2)cc(N2CCN(CCO)CC2)n1 [dasatinib] | 48.7 | 48.8 | 1.67 | 1.83 | 1.87 | 1.19 | 1.75 | 1.46 | 1.18 | 2.4 | 134 | 253 | 306 | 672 | 128 | 633 | 0.0645 | 0.0526 | 0.0134 | 0.00871 | 0.00616 | 0.0379 | 0.0114 | 0.0108 |
| COc1cc(CCc2cc(NC(=O)c3ccc(N4C[C@@H](C)N[C@@H](C)C4)cc3)n[nH]2)cc(OC)c1 [AZD4547] + Cc1nc(Nc2ncc(C(=O)Nc3c(C)cccc3Cl)s2)cc(N2CCN(CCO)CC2)n1 [dasatinib] | 3540 | 314 | 1.25 | 2.37 | 4.54 | 2.33 | 1.78 | 2.51 | 1.72 | 3.4 | 34 | 3000 | 4240 | 201 | > 10000 | > 10000 | 0.0512 | 0.314 | 0.016 | 0.106 | 0.061 | 0.581 | 0.14 | 0.542 |
| NC(=O)Nc1cc(-c2cccc(F)c2)sc1C(=O)N[C@H]1CCCNC1 [AZD7762] + Cc1nc(Nc2ncc(C(=O)Nc3c(C)cccc3Cl)s2)cc(N2CCN(CCO)CC2)n1 [dasatinib] | 25 | 5.85 | 1.19 | 1.26 | 2.04 | 0.834 | 1.56 | 1.32 | 0.645 | 2.29 | 59.1 | 59.6 | 99.7 | 315 | 52.4 | 261 | 0.00368 | 0.0198 | 0.0113 | 0.00579 | 0.00591 | 0.0473 | 0.0359 | 0.0562 |

The next lines start with results.

| GI50 of drug [12] [nM] | GI50 of drug [15] [nM] | SMILES | AUC of dose-response viability curve [1] | AUC of dose-response viability curve [2] | AUC of dose-response viability curve [3] | AUC of dose-response viability curve [4] | AUC of dose-response viability curve [5] | AUC of dose-response viability curve [6] | AUC of dose-response viability curve [7] | AUC of dose-response viability curve [8] | GI50 of drug [9] [nM] | GI50 of drug [10] [nM] | GI50 of drug [11] [nM] | GI50 of drug [13] [nM] | GI50 of drug [14] [nM] | GI50 of drug [16] [nM] | minimum viability across doses [17] | minimum viability across doses [18] | minimum viability across doses [19] | minimum viability across doses [20] | minimum viability across doses [21] | minimum viability across doses [22] | minimum viability across doses [23] | minimum viability across doses [24] |
| --- | --- | --- | --- | --- | --- | --- | --- | --- | --- | --- | --- | --- | --- | --- | --- | --- | --- | --- | --- | --- | --- | --- | --- | --- |
| > 10000 | 146 | Cc1ccc(NC(=O)c2cccc(C(C)(C)C#N)c2)cc1Nc1ccc2ncn(C)c(=O)c2c1 [AZ628] + Cc1nc(Nc2ncc(C(=O)Nc3c(C)cccc3Cl)s2)cc(N2CCN(CCO)CC2)n1 [dasatinib] | 2.08 | 2.25 | 2.95 | 2.36 | 2.33 | 2.33 | 1.59 | 3.02 | 1120 | 1600 | 1580 | > 10000 | 2470 | 6100 | 0.0806 | 0.311 | 0.0219 | 0.593 | 0.348 | 0.214 | 0.174 | 0.409 |
| 197 | 123 | Cc1cc(Nc2nc(N[C@@H](C)c3ccc(F)cc3)c(C#N)cc2F)n[nH]1 [AZ 960] + Cc1nc(Nc2ncc(C(=O)Nc3c(C)cccc3Cl)s2)cc(N2CCN(CCO)CC2)n1 [dasatinib] | 1.43 | 2.17 | 2.11 | 1.41 | 1.91 | 1.77 | 1.48 | 2.64 | 146 | 882 | 496 | 651 | 442 | 987 | 0.00482 | 0.091 | 0.0082 | 0.00499 | 0.127 | 0.0281 | 0.0473 | 0.246 |
| 44 | 8.2 | CNC(=O)c1cccc(-c2ccc3c(N4CCOC[C@@H]4C)nc(N4CCOC[C@@H]4C)nc3n2)c1 [AZD2014] + Cc1nc(Nc2ncc(C(=O)Nc3c(C)cccc3Cl)s2)cc(N2CCN(CCO)CC2)n1 [dasatinib] | 1.28 | 1.28 | 2.06 | 1.33 | 1.48 | 1.63 | 0.938 | 2.2 | 62.1 | 64 | 268 | 88.5 | 131 | 430 | 0.0331 | 0.0635 | 0.00563 | 0.0164 | 0.119 | 0.0727 | 0.0544 | 0.147 |
| 128 | 246 | Cc1ncc(-c2ccnc(Nc3ccc(S(C)(=O)=O)cc3)n2)n1C(C)C [AZD5438] + Cc1nc(Nc2ncc(C(=O)Nc3c(C)cccc3Cl)s2)cc(N2CCN(CCO)CC2)n1 [dasatinib] | 1.65 | 2.02 | 2.05 | 1.3 | 2.05 | 1.82 | 1.46 | 2.78 | 238 | 529 | 367 | 1760 | 474 | 1550 | 0.0627 | 0.127 | 0.00804 | 0.00349 | 0.0122 | 0.0188 | 0.0173 | 0.0116 |
